Laboratory results published in paper PMC3003687, “α-Galactosylceramide Analogs with Weak Agonist Activity for Human iNKT Cells Define New Candidate Anti-Inflammatory Agents” (PLoS ONE, 2010).

Biological target: T1, hCD1d (Homo sapiens, UniProt P15813)
T1 construct: we generated soluble and fluorescent tetrameric hCD1d molecules loaded with each of the glycolipid analogs; made in house
Experiment: Loading of hCD1d tetramers with variable glycolipid to CD1d ratios
Type: binding
Details: 20 nM tetramers, 25 to 1000 fold molar excess of glycolipid to hCD1d, HDD3 clone
Excerpt: To characterize in more detail the iNKT cell TCR recognition of αGalCer analogs presented by human CD1d, we generated soluble and fluorescent tetrameric hCD1d molecules loaded with each of the glycolipid analogs. […] This was similar to the previously reported failure of mouse CD1d tetramer loaded with lysosulfatide to bind detectably to murine non-invariant and sulfatide specific NKT cells, despite a clear reactivity to this lipid upon presentation by APCs; [40]. […] To quantitate their binding avidities to iNKT cell TCRs, we used titration of analog-loaded hCD1d tetramers to determine equilibrium dissociation constants (KD), which are inversely proportional to avidity (Figure 3A and 3B).
Figure 3 Characterization of human iNKT cell TCR interactions with analog-loaded tetramers. (A) iNKT cell clones were stained with titrated amounts of hCD1d tetramers loaded with the indicated glycolipids (abbreviations as in legend to Figure 1), and the measured MFI values are plotted for selected glycolipids. (B) The equilibrium dissociation constants (KD, inversely proportional to TCR avidity) were determined as the concentrations of tetramers required to yield 50% of maximal binding. Data shown were obtained using the CD4^+ iNKT cell clone HDD3, and similar results (not shown) were obtained with a second CD4^+ clone (HDD11) and a CD4^−8^− double negative iNKT cell clone (HDE3). (C) Analysis of iNKT cell clones labeled with 20 nM of hCD1d tetramers which were loaded with variable excesses of analog to constant hCD1d (25 to 1000 fold molar excess of glycolipid to hCD1d protein). The measured MFI values were normalized as the percent of the maximum staining intensity obtained with each analog loaded tetramer. Data presented were generated with HDD3 (CD4+) iNKT cell clone, and similar results (not shown) were obtained with HDE3 (DN) clone.

T1 sequence (P15813 20-301 limits assumed): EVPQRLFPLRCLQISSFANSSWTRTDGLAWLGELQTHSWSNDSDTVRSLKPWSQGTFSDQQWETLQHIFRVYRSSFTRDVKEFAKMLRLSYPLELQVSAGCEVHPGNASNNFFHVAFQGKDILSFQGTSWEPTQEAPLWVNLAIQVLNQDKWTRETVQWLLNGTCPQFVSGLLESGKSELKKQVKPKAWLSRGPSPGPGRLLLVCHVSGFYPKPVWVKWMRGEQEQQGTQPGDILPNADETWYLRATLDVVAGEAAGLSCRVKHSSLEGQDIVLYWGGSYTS
T1 sequence (P61769 21-119 partner): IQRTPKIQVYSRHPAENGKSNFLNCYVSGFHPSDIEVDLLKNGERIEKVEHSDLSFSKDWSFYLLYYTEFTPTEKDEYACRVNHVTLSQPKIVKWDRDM

CCCCCCCCCCCCCCCCCCCCCCCCCC(=O)N[C@@H](CO[C@H]1O[C@H](CO)[C@H](O)[C@H](O)[C@H]1O)[C@H](O)[C@H](O)CCCCCCCCCCCCCC [KRN7000, reference compound]
lipid excess at which tetramers were efficiently loaded: 25–50 fold
